Test results taken from US20260234115A1, “LIPID COMPOUNDS, COMPOSITIONS, AND USES THEREOF” (Liberate Bio, Inc., priority 2023, published 2026).
Marks after values point to notes of the source that are not given here.

Test system: mouse organs
Assay: In vivo activity screening in mice: organ mean total flux (p/s) of luciferase activity after injection of F2 LNP pools (Table 6, FIG. 7A-7C)
Conditions: luciferase mRNA
Method: Small rodent biodistribution studies were performed in mice (e.g., C57BL/6J, Balb-c, CD-1, etc.). For evaluating LNP biodistribution and tissue activity upon systemic administration, C57BL/6J mice received dose administration by single intravenous injection via tail vein with LNP formulations (individual or pooled) in PBS, at different dose (0.25-3 mg/kg) levels of firefly luciferase mRNA. At predetermined time points (4-6 hours post-injection), the animals were anesthetized via isoflurane and subjected to in-life imaging sessions for bioluminescence using an In Vivo Imaging System (IVIS). All animals were dosed with D-Luciferin at 15 mg/mL via subcutaneous (SC) injection at 0.2 mL/animal. Animals had their abdomen hair shaved using an animal trimmer. They were then placed so their shaved belly faced up toward the IVIS camera. Whole body imaging sessions were performed 10-15 minutes following D-Luciferin administration.
For in detail organ distribution and activity of LNP formulations, ex vivo imaging sessions were also performed. All animals received SC D-Luciferin and were then euthanized by isoflurane overdose, followed by cardiac perfusion with saline. Following perfusion, the organs were collected and subjected to IVIS imaging for luminescence within 10-15 minutes of D-Luciferin injection.
All IVIS images were processed with a computer software to identify the regions of interests for individual organs to detect the total flux (p/s) values as luminescence quantification. Then the total flux values were graphed to evaluate the in vivo activity in each collected organ.
Small rodent biodistribution studies were performed in mice according to the General Study Protocols in Example 3(a). LNPs incorporating lipid compounds were prepared in Formulation F2, with MC3 as lipid compound (Cayman Chemical) prepared using Formulation F2 for comparison. LNP pools (with firefly luciferase mRNA encapsulated) were injected into mice at varying doses, and organ mean total flux (p/s) results (measuring luciferase activity) were then collected according to Example 3(a).
LNPs comprising MC3 used as a control and for cross-mouse comparison. Dose is in mg/kg; LC is Lipid Compound according to Table 1.
Additional screening results for Compounds 7, 13, 14, 26, 33, 38, 39, 40, 48, 60, 61, 89, 103, and 109 in spleen, femur, and muscle are shown in FIG. 7A, FIG. 7B, and FIG. 7C, with MC3 as a used as a control for comparison.

Compound | Organ Mean Total Flux Femur (Mouse 11, dose 0.5 mg/kg) | Organ Mean Total Flux Heart (Mouse 11, dose 0.5 mg/kg) | Organ Mean Total Flux Kidney (Mouse 11, dose 0.5 mg/kg) | Organ Mean Total Flux Liver (Mouse 11, dose 0.5 mg/kg) | Organ Mean Total Flux Lung (Mouse 11, dose 0.5 mg/kg) | Organ Mean Total Flux Muscle (Mouse 11, dose 0.5 mg/kg) | Organ Mean Total Flux Pancreas (Mouse 11, dose 0.5 mg/kg) | Organ Mean Total Flux Spleen (Mouse 11, dose 0.5 mg/kg) | Organ Mean Total Flux Femur (Mouse 6, dose 0.5 mg/kg) | Organ Mean Total Flux Heart (Mouse 6, dose 0.5 mg/kg) | Organ Mean Total Flux Kidney (Mouse 6, dose 0.5 mg/kg) | Organ Mean Total Flux Liver (Mouse 6, dose 0.5 mg/kg) | Organ Mean Total Flux Lung (Mouse 6, dose 0.5 mg/kg) | Organ Mean Total Flux Muscle (Mouse 6, dose 0.5 mg/kg) | Organ Mean Total Flux Pancreas (Mouse 6, dose 0.5 mg/kg) | Organ Mean Total Flux Spleen (Mouse 6, dose 0.5 mg/kg) | also measured
CCCCC/C=C\CCOC(=O)CCCCC(=O)OCC(COC(=O)CCCCC(=O)OCC/C=C\CCCCC)(COC(=O)CCCCC(=O)OCC/C=C\CCCCC)COC(=O)CCC(CCCCCC)OC(=O)NCCN1CCCC1 (centres unmarked) [Compound 13, O6-[2,2-bis[[6-[(Z)-non-3-enoxy]-6-oxo-hexanoyl]oxymethyl]-3-[4-(2-pyrrolidin-1-ylethylcarbamoyloxy)decanoyloxy]propyl]O1-[(Z)-non-3-enyl]hexanedioate] |  |  |  |  |  |  |  |  |  |  |  |  |  |  |  |  | Organ Mean Total Flux Femur (Mouse 12, dose 0.5 mg/kg): 4.8 p/s (×10^6); Organ Mean Total Flux Heart (Mouse 12, dose 0.5 mg/kg): 1.0 p/s (×10^6); Organ Mean Total Flux Kidney (Mouse 12, dose 0.5 mg/kg): 4.5 p/s (×10^6); Organ Mean Total Flux Liver (Mouse 12, dose 0.5 mg/kg): 620.0 p/s (×10^6); Organ Mean Total Flux Lung (Mouse 12, dose 0.5 mg/kg): 16.7 p/s (×10^6); Organ Mean Total Flux Muscle (Mouse 12, dose 0.5 mg/kg): 17.0 p/s (×10^6); Organ Mean Total Flux Pancreas (Mouse 12, dose 0.5 mg/kg): 1.1 p/s (×10^6); Organ Mean Total Flux Spleen (Mouse 12, dose 0.5 mg/kg): 21.3 p/s (×10^6)
CCCCC/C=C\CCOC(=O)CCCCC(=O)OCC(COC(=O)CCCCC(=O)OCC/C=C\CCCCC)(COC(=O)CCC(CCCCCC)OC(=O)NCCN1CCCC1)COC(=O)CCC(OCCCCCCCC)OCCCCCCCC (centres unmarked) [Compound 15, O6-[2-(4,4-dioctoxybutanoyloxymethyl)-2-[[6-[(Z)-non-3-enoxy]-6-oxo-hexanoyl]oxymethyl]-3-[4-(2-pyrrolidin-1-ylethylcarbamoyloxy)decanoyloxy]propyl]O1-[(Z)-non-3-enyl]hexanedioate] |  |  |  |  |  |  |  |  |  |  |  |  |  |  |  |  | Organ Mean Total Flux Femur (Mouse 13, dose 0.5 mg/kg): 1.3 p/s (×10^6); Organ Mean Total Flux Heart (Mouse 13, dose 0.5 mg/kg): 1.4 p/s (×10^6); Organ Mean Total Flux Kidney (Mouse 13, dose 0.5 mg/kg): 0.4 p/s (×10^6); Organ Mean Total Flux Liver (Mouse 13, dose 0.5 mg/kg): 992.3 p/s (×10^6); Organ Mean Total Flux Lung (Mouse 13, dose 0.5 mg/kg): 3.7 p/s (×10^6); Organ Mean Total Flux Muscle (Mouse 13, dose 0.5 mg/kg): 1.1 p/s (×10^6); Organ Mean Total Flux Pancreas (Mouse 13, dose 0.5 mg/kg): 0.1 p/s (×10^6); Organ Mean Total Flux Spleen (Mouse 13, dose 0.5 mg/kg): 1.6 p/s (×10^6)
CCCCC/C=C\CCOC(=O)CCCCCC(=O)OCC(COC(=O)CCCCCCOC(=O)C(CCCC)CCCCCC)(COC(=O)CCCCCCOC(=O)C(CCCC)CCCCCC)COC(=O)CCC(CCCCCC)OC(=O)NCCN1CCCC1 (centres unmarked) [Compound 17, O7-[2,2-bis[7-(2-butyloctanoyloxy)heptanoyloxymethyl]-3-[4-(2-pyrrolidin-1-ylethylcarbamoyloxy)decanoyloxy]propyl]O1-[(Z)-non-3-enyl]heptanedioate] |  |  |  |  |  |  |  |  |  |  |  |  |  |  |  |  | Organ Mean Total Flux Femur (Mouse 2, dose 1.0 mg/kg): 8.0 p/s (×10^6); Organ Mean Total Flux Heart (Mouse 2, dose 1.0 mg/kg): 13.0 p/s (×10^6); Organ Mean Total Flux Kidney (Mouse 2, dose 1.0 mg/kg): 7.6 p/s (×10^6); Organ Mean Total Flux Liver (Mouse 2, dose 1.0 mg/kg): 11856 p/s (×10^6); Organ Mean Total Flux Lung (Mouse 2, dose 1.0 mg/kg): 59.3 p/s (×10^6); Organ Mean Total Flux Muscle (Mouse 2, dose 1.0 mg/kg): 30.7 p/s (×10^6); Organ Mean Total Flux Pancreas (Mouse 2, dose 1.0 mg/kg): 3.0 p/s (×10^6); Organ Mean Total Flux Spleen (Mouse 2, dose 1.0 mg/kg): 5.5 p/s (×10^6)
CCCC/C=C\CCOC(=O)CCCCCCCC(=O)OCC(COC(=O)CCCCCCCC(=O)OCC/C=C\CCCC)(COC(=O)CCCCCCCC(=O)OCC/C=C\CCCC)COC(=O)CCC(CCCCCC)OC(=O)NCCN1CCCC1 (centres unmarked) [Compound 21, O9-[2,2-bis[[9-[(Z)-oct-3-enoxy]-9-oxo-nonanoyl]oxymethyl]-3-[4-(2-pyrrolidin-1ylethylcarbamoyloxy)decanoyloxy]propyl]O1-[(Z)-oct-3-enyl]nonanedioate] | 2.0 p/s (×10^6) | 0.8 p/s (×10^6) | 0.7 p/s (×10^6) | 818.7 p/s (×10^6) | 6.6 p/s (×10^6) | 4.1 p/s (×10^6) | 2.8 p/s (×10^6) | 2.0 p/s (×10^6) |  |  |  |  |  |  |  |  | 
CCCCCCCCCOC(=O)CCCCCCC(=O)OCC(COC(=O)CCCCCCC(=O)OCCCCCCCCC)(COC(=O)CCCCCCC(=O)OCCCCCCCCC)COC(=O)CCC(CCCCCC)OC(=O)NCCN1CCCC1 (centres unmarked) [Compound 23, O8-[2,2-bis[(8-nonoxy-8-oxo-octanoy)oxymethyl]-3-[4-(2-pyrrolidin-1-ylethylcarbamoyloxy)decanoyloxy]propyl]O1-nonyl octanedioate] | 1.2 p/s (×10^6) | 2.1 p/s (×10^6) | 1.2 p/s (×10^6) | 1727 p/s (×10^6) | 15.7 p/s (×10^6) | 3.0 p/s (×10^6) | 0.6 p/s (×10^6) | 1.7 p/s (×10^6) |  |  |  |  |  |  |  |  | 
CCCCCCCCCOC(=O)CCCCCC(=O)OCC(COC(=O)CCCCCC(=O)OCCCCCCCCC)(COC(=O)CCCCCC(=O)OCCCCCCCCC)COC(=O)CCC(CCCCCC)OC(=O)NCCN1CCCC1 (centres unmarked) [Compound 24, O7-[2,2-bis[(7-nonoxy-7-oxo-heptanoyl)oxymethyl]-3-[4-(2-pyrrolidin-1-ylethylcarbamoyloxy)decanoyloxy]propyl]O1-nonyl heptanedioate] |  |  |  |  |  |  |  |  | 6.3 p/s (×10^6) | 7.1 p/s (×10^6) | 5.7 p/s (×10^6) | 4153 p/s (×10^6) | 28.8 p/s (×10^6) | 12.1 p/s (×10^6) | 7.9 p/s (×10^6) | 10.7 p/s (×10^6) | 
CCCCC/C=C\CCOC(=O)CCCCCCC(=O)OCC(COC(=O)CCCCCCC(=O)OCC/C=C\CCCCC)(COC(=O)CCCCCCC(=O)OCC/C=C\CCCCC)COC(=O)CCC(CCCC)OC(=O)NCCN1CCCC1 (centres unmarked) [Compound 25, O8-[2,2-bis[[8-[(Z)-non-3-enoxy]-8-oxo-octanoyl]oxymethyl]-3-[4-(2-pyrrolidin-1-ylethylcarbamoyloxy)octanoyloxy]propyl]O1-[(Z)-non-3-enyl]octanedioate] |  |  |  |  |  |  |  |  | 4.4 p/s (×10^6) | 1.4 p/s (×10^6) | 5.9 p/s (×10^6) | 911.0 p/s (×10^6) | 12.5 p/s (×10^6) | 5.1 p/s (×10^6) | 14.3 p/s (×10^6) | 80.3 p/s (×10^6) | 
CCCCC/C=C\CCOC(=O)CCCCCC(=O)OCC(COC(=O)CCCCCC(=O)OCC/C=C\CCCCC)(COC(=O)CCCCCC(=O)OCC/C=C\CCCCC)COC(=O)CCC(CCCC)OC(=O)NCCN1CCCC1 (centres unmarked) [Compound 26, O7-[2,2-bis[[7-[(Z)-non-3-enoxy]-7-oxo-heptanoyl]oxymethyl]-3-[4-(2-pyrrolidin-1-ylethylcarbamoyloxy)octanoyloxy]propyl]O1-[(Z)-non-3-enyl]heptanedioate] | 20.0 p/s (×10^6) | 1.2 p/s (×10^6) | 4.4 p/s (×10^6) | 481.0 p/s (×10^6) | 26.9 p/s (×10^6) | 6.2 p/s (×10^6) | 8.2 p/s (×10^6) | 152.7 p/s (×10^6) |  |  |  |  |  |  |  |  | 
CCCCC/C=C\CCOC(=O)CCCCCCC(=O)OCC(COC(=O)CCCCCCC(=O)OCC/C=C\CCCCC)(COC(=O)CCCCCCC(=O)OCC/C=C\CCCCC)COC(=O)CCC(CCCCCCCC)OC(=O)NCCN1CCCC1 (centres unmarked) [Compound 27, O8-[2,2-bis[[8-[(Z)-non-3-enoxy]-8-oxooctanoyl]oxymethyl]-3-[4-(2-pyrrolidin-1-ylethylcarbamoyloxy)dodecanoyloxy]propyl]O1-[(Z)-non-3-enyl]octanedioate] | 1.1 p/s (×10^6) | 1.7 p/s (×10^6) | 1.2 p/s (×10^6) | 1441 p/s (×10^6) | 16.4 p/s (×10^6) | 2.0 p/s (×10^6) | 0.5 p/s (×10^6) | 1.0 p/s (×10^6) |  |  |  |  |  |  |  |  | 
CCCCC/C=C\CCOC(=O)CCCCCC(=O)OCC(COC(=O)CCCCCC(=O)OCC/C=C\CCCCC)(COC(=O)CCCCCC(=O)OCC/C=C\CCCCC)COC(=O)CCC(CCCCCCCC)OC(=O)NCCN1CCCC1 (centres unmarked) [Compound 28, O7-[2,2-bis[[7-[(Z)-non-3-enoxy]-7-oxo-heptanoyl]oxymethyl]-3-[4-(2-pyrrolidin-1-ylethylcarbamoyloxy)dodecanoyloxy]propyl]O1-[(Z)-non-3-enyl]heptanedioate] |  |  |  |  |  |  |  |  | 3.5 p/s (×10^6) | 0.5 p/s (×10^6) | 0.9 p/s (×10^6) | 278.3 p/s (×10^6) | 10.4 p/s (×10^6) | 11.6 p/s (×10^6) | 0.8 p/s (×10^6) | 3.5 p/s (×10^6) | 
